Experiment: Pharmacokinetic evaluation of Bupivacaine (BU) and Formula I (1-1) in Sprague-Dawley rats (blood and brain concentrations)
Format: in vivo
Conditions: rat, male Sprague-Dawley rats, intravenous, 3 mg/kg, n=5
Experimental: Male specific pathogen-free Sprague-Dawley rats weighing 300-350 g were obtained from the Laboratory. The animals had free access to food and water. The rat was anaesthetized with urethane 1.0 g/mL and chloralose 0.1 g/mL (1 mL/kg, i.p.) before surgery. The femoral vein was cannulated for further drug administration, and the rat's body temperature was maintained by heating pad during the experiment. All rats remained anaesthetized during the experimental period over which the Formula I (1-1) and BU concentrations in blood, brain and bile were monitored, and they were euthanized by overdose CO2 under the anaesthetic after the experimental endpoint.
Bupivacaine (3 mg/mL) was prepared in 0.9%(w/v) sodium chloride. Formula I (1-1) equivalent of BU 3 mg/mL. Rats were divided into the following groups (n=5 for each group) and received drugs intravenously: group 1 treated with (20 mg/kg) 10 min before BU (3 mg/kg) administration, group 2 treated with Formula I (1-1) (3 mg/kg).
The chromatographic system consisted of a PM-80 chromatographic pump (BAS, West Lafayette, Ind., USA), an off-line injector (CMA/140, Stockholm, Sweden) equipped with a […] sample loop injector (Rheodynemodel7125) and a UV-Vis detector (Soma, Tokyo, Japan) that operated at room temperature (25±2° C.). Separation was achieved on a LiChrosphere60RP-select B column (4.6 mm×250 mm, […], Merck). The mobile phase for plasma, brain homogenate, blood dialysate and brain dialysate was comprised of 10 mM potassium dihydrogenphosphate-acetonitrile-triethylamine (67:33:0.01), adjusted to pH4.3 with H3PO4. The mobile phase for bile dialysate consisted of 10 mM potassium dihydrogen phosphate-acetonitrile-triethylamine (60:40:0.01), adjusted to pH6.0 with H3PO4. The flow rate was set at 1.0 mL/min for both mobile phases.

CCCCN1CCCCC1C(=O)Nc1c(C)cccc1C (stereo not shown) [BU, Bupivacaine]
AUC (Blood): 1370 ng·h/mL
half-life (Blood): 4 ± 2 min
AUC (Brain): 250 ng·h/mL
Cmax (Brain): 560 ± 130 ng/mL

— US9173877B1, “Compositions and methods for the treatment of local pain” (CELLIX BIO PRIVATE LIMITED, priority 2014, dated 2015)
